# In ChEMBL document CHEMBL3997852, “Discovery of Fluorine-Containing Benzoxazinyl-oxazolidinones for the Treatment of Multidrug Resistant Tuberculosis” (ACS Med Chem Lett, 2017):
# Tests used:
# [1] = system: Mycobacterium tuberculosis; experiment: Antitubercular activity against isoniazid/rifampicin-resistant Mycobacterium tuberculosis 16892 clinical isolate after 7 days by microplate alamar blue assay; type: functional; conditions: Mycobacterium tuberculosis, 16892, 168 h
# [2] = system: Mycobacterium tuberculosis; experiment: Antitubercular activity against isoniazid/rifampicin/streptomycin/ethambutol/levofloxacin-resistant Mycobacterium tuberculosis 16802 clinical isolate after 7 days by microplate alamar blue assay; type: functional; conditions: Mycobacterium tuberculosis, 16802, 168 h
smiles,measurement,setting,value
CC(=O)NC[C@@H]1OC(=O)N2c3cc(F)c(C4=CCN(C(=O)CN)CC4)cc3OC[C@@H]12.Cl,MIC90,[1],0.25 µg/mL
same,MIC90,[2],2 µg/mL
CC(=O)NC[C@@H]1OC(=O)N2c3cc(F)c(C4=CCN(C(=O)[C@@H](O)CO)CC4)cc3OC[C@@H]12,MIC90,[1],0.25 µg/mL
same,MIC90,[2],1 µg/mL
NNC(=O)c1ccncc1 [ISONIAZID],MIC90,[1],> 40 µg/mL
same,MIC90,[2],2.5 µg/mL
CC(=O)NC[C@@H]1OC(=O)N2c3cc(F)c(C4=CCN(C(=O)CO)CC4)cc3OC[C@@H]12,MIC90,[1],0.25 µg/mL
same,MIC90,[2],0.5 µg/mL
CC(=O)NC[C@@H]1OC(=O)N2c3cc(F)c(C4=CCN(CCO)CC4)cc3OC[C@@H]12,MIC90,[1],0.5 µg/mL
same,MIC90,[2],2 µg/mL
CO[C@H]1/C=C/O[C@@]2(C)Oc3c(C)c(O)c4c(O)c(c(/C=N/N5CCN(C)CC5)c(O)c4c3C2=O)NC(=O)/C(C)=C\C=C\[C@H](C)[C@H](O)[C@@H](C)[C@@H](O)[C@@H](C)[C@H](OC(C)=O)[C@@H]1C [RIFAMPIN],MIC90,[1],> 40 µg/mL
same,MIC90,[2],20 µg/mL
O=C(NC[C@@H]1OC(=O)N2c3cc(F)c(C4=CCN(CCO)CC4)cc3OC[C@@H]12)C1CC1,MIC90,[1],0.5 µg/mL
same,MIC90,[2],1 µg/mL
